Data: publication PMC6447871, “Design, Synthesis, Molecular Modeling, In Silico ADME Studies and Anti-HIV-1 Assay of New Diazocoumarin Derivatives” (Iranian Journal of Pharmaceutical Research : IJPR, 2018)
pEC50: −log10 of the molar value.

Tests used:
HIV-1 [1] = assay: microbe, parasite or virus in culture; format: cell-based; conditions: Human immunodeficiency virus 1, NL43, M-HeLa, 72 h, read-out: (%) Inhibition rate of p24 expression
Experimental: (§1) Anti-HIV-1 activity of synthesized compounds was evaluated in single cycle replication assay which was evaluated in our laboratory and reported previously ([32]-[35]). In this assay, the single-cycle replicable HIV NL4-3 virions (200 ng p24) were inoculated concurrently with compounds in different concentrations to the Hela cells. The inhibition rate (%) of p24 expression was measured by capture ELISA (Biomerieux, France) 72 hours after inoculation. Percentage inhibition of p24 expression in treated culture was calculated as inhibition rate of p24 (%). The XTT (sodium3-[1(phenylaminocarbonyl)-3,4-tetrazolium]-bis(4-methoxy-6-nitro)benzene sulfonic acid) proliferation assay was conducted to evaluate the cellular toxicity according to kit instructions ([36], [37]). Cytotoxicity test was performed exactly after the p24 assay.
(§2) Compounds 11a-h were assayed for anti-HIV-1 activity in single cycle replication method which reflects only one round of infection. Anti-HIV activity of compounds was measured as inhibition rate (%) of p24 expression in Hela cells cultures. Azidothymidine (AZT) was the positive control in the test. The cytotoxic properties were measured in the same cells by XTT proliferation assay and reported as percentage of cell viability.

[2] = XTT proliferation assay (cellular toxicity); conditions: human
Experimental: as §1, §2

HIV-1 [3] = system: HIV-1; parameters: method as in earlier work; conditions: read-out: EC50 (anti-HIV-1 activity); cited from earlier work
[4] = parameters: method as in earlier work; conditions: read-out: CC50 (cytotoxicity); cited from earlier work

SMILES: O=c1oc2ccccc2c(O)c1N=Nc1ccc(-c2nnc(SCc3ccccc3Cl)o2)cc1 [Compound 11e, 3-((4-(5-(2-Chlorobenzylthio)-1,3,4-oxadiazol-2-yl)phenyl)diazenyl)-4-hydroxy-2H-chromen-2-one]
- inhibition at 100 µM (HIV-1 [1]): 33%
- viability at 72 h, 100 µM [2]: 75%
- melting point: 236.8 to 237.5 °C

SMILES: Cc1cn([C@H]2C[C@H](N=[N+]=[N-])[C@@H](CO)O2)c(=O)[nH]c1=O [AZT, Azidothymidine, reference compound]
- inhibition at 100 µM (HIV-1 [1]): 58%
- viability at 72 h, 100 µM [2]: 92%

SMILES: CCCSc1nnc(-c2ccc(N=Nc3c(O)c4ccccc4oc3=O)cc2)o1 [Compound 11c, 4-Hydroxy-3-((4-(5-(propylthio)-1,3,4-oxadiazol-2-yl)phenyl)diazenyl)-2H-chromen-2-one]
- inhibition at 100 µM (HIV-1 [1]): 32%
- viability at 72 h, 100 µM [2]: 93%
- melting point: 205.5 to 206.8 °C

SMILES: O=c1oc2ccccc2c(O)c1N=Nc1ccc(-c2nnc(SCc3ccc(Cl)cc3)o2)cc1 [Compound 11f, 3-((4-(5-(4-Chlorobenzylthio)-1,3,4-oxadiazol-2-yl)phenyl)diazenyl)-4-hydroxy-2H-chromen-2-one]
- inhibition at 100 µM (HIV-1 [1]): 52%
- viability at 72 h, 100 µM [2]: 100%
- melting point: 260.8 to 263.8 °C

SMILES: O=c1oc2ccccc2c(O)c1N=Nc1ccc(-c2nnc(SCc3ccccc3F)o2)cc1 [Compound 11g, 3-((4-(5-(2-Fluorobenzylthio)-1,3,4-oxadiazol-2-yl)phenyl)diazenyl)-4-hydroxy-2H-chromen-2-one]
- inhibition at 100 µM (HIV-1 [1]): 22%
- viability at 72 h, 100 µM [2]: 74%
- melting point: 240.1 to 242.2 °C

SMILES: O=c1oc2ccccc2c(O)c1N=Nc1ccc(-c2nnc(SCc3ccccc3)o2)cc1 [Compound 11d, 3-((4-(5-(Benzylthio)-1,3,4-oxadiazol-2-yl)phenyl)diazenyl)-4-hydroxy-2H-chromen-2-one]
- inhibition at 100 µM (HIV-1 [1]): 6%
- viability at 72 h, 100 µM [2]: 94%
- melting point: 243.1 to 243.8 °C

SMILES: CSc1nnc(-c2ccc(N=Nc3c(O)c4ccccc4oc3=O)cc2)o1 [Compound 11a, 4-Hydroxy-3-((4-(5-(methylthio)-1,3,4-oxadiazol-2-yl)phenyl)diazenyl)-2H-chromen-2-one]
- inhibition at 100 µM (HIV-1 [1]): 79%
- viability at 72 h, 100 µM [2]: 51%
- melting point: 211.6 to 212.1 °C

SMILES: O=c1c(-c2nnc(SCc3ccccc3F)o2)c[nH]c2c(-c3ccccc3)cccc12 [Compound 3]
- pEC50 (HIV-1 [3]): 4.30
- CC50 [4]: > 100 µM

SMILES: O=c1oc2ccccc2c(O)c1N=Nc1ccc(-c2nnc(SCc3ccc(F)cc3)o2)cc1 [Compound 11h, 3-((4-(5-(4-Fluorobenzylthio)-1,3,4-oxadiazol-2-yl)phenyl)diazenyl)-4-hydroxy-2H-chromen-2-one]
- inhibition at 100 µM (HIV-1 [1]): 25%
- viability at 72 h, 100 µM [2]: 100%
- melting point: 246.6 to 251.6 °C

SMILES: CCSc1nnc(-c2ccc(N=Nc3c(O)c4ccccc4oc3=O)cc2)o1 [Compound 11b, 3-((4-(5-(Ethylthio)-1,3,4-oxadiazol-2-yl)phenyl)diazenyl)-4-hydroxy-2H-chromen-2-one]
- inhibition at 100 µM (HIV-1 [1]): 5%
- viability at 72 h, 100 µM [2]: 100%
- melting point: 290 to 291 °C (dec.)
